Test results from paper PMC6797481, “Identification of an allosteric binding site on the human glycine transporter, GlyT2, for bioactive lipid analgesics” (eLife, 2019).
Residue numbers refer to the chain shown, from its start.

Assays:
GlyT2 P561S mutant = target: T1, GlyT2 P561S mutant (Homo sapiens, UniProt Q9Y345, P561S); experiment: Glycine transport currents, two electrode voltage clamp, oocytes expressing GlyT2 P561S; assay type: cell-based; conditions: for IC50 / % Max. inhibition: GlyT2 P561S; for % Max. inhibition: mean ± SEM
T1 construct: expressed in transfected cells; host or cells: Xenopus laevis oocytes (cRNA injection)
T1 sequence (Q9Y345 1-797 P561S): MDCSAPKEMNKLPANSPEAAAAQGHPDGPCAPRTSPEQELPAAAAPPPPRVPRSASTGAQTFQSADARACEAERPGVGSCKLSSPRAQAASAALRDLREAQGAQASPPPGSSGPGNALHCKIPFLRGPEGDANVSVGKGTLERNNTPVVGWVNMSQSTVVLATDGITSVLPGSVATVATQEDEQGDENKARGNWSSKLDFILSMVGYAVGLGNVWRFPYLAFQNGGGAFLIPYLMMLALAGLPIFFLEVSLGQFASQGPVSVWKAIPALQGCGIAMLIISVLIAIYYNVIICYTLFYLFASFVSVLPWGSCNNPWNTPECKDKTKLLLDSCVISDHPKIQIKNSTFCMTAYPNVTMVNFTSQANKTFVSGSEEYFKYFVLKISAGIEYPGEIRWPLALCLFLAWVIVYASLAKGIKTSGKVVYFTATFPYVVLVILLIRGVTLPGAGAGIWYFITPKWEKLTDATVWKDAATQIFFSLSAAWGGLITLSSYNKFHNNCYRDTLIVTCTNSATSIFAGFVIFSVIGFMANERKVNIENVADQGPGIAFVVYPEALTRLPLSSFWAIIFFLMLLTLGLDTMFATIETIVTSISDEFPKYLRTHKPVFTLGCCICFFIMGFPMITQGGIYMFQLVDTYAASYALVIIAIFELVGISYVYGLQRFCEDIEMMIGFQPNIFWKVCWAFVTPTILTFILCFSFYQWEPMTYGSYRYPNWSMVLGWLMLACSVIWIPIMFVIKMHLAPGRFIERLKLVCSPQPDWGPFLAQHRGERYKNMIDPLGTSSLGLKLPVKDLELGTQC
Protocol: (§1) Glycine was first applied to establish maximal transport current.
(§2) Compounds were tested for inhibition of glycine transport on Xenopus laevis oocytes expressing mutant GlyT1 and GlyT2 transporters. n values are in brackets, with measurements taken from at least 2 batches of oocytes.

GlyT2 W563L mutant = target: T2, GlyT2 W563L mutant (Homo sapiens, UniProt Q9Y345, W563L); experiment: Glycine transport currents, two electrode voltage clamp, oocytes expressing GlyT2 W563L; assay type: cell-based; conditions: for % Max. inhibition: mean ± SEM
T2 construct: expressed in transfected cells; host or cells: Xenopus laevis oocytes (cRNA injection)
T2 sequence (Q9Y345 1-797 W563L): T1 sequence (Q9Y345 1-797 P561S) with S561P, W563L
Protocol: as §1, §2

GlyT2 WT = target: T3, GlyT2 WT (Homo sapiens, UniProt Q9Y345); set-up: expressed in transfected cells; host or cells: Xenopus laevis oocytes (cRNA injection); conditions: cited from earlier work; for IC50 / GlyT2 % max. inhibition: WT GlyT2, previously published; for IC50: mean (95% CI); for GlyT2 % max. inhibition: mean ± SEM; for mechanism of inhibition: versus substrate glycine, ref Mostyn et al., 2019, Wiles et al., 2006
T3 sequence (Q9Y345 1-797): T1 sequence (Q9Y345 1-797 P561S) with S561P

[1] = GlyT2 W563L, greater than maximum concentration applied (footnote a)

Compound: NCC(=O)O [Glycine]
- EC50 (GlyT2 P561S mutant; glycine transport, GlyT2 P561S (TM8)): 15.5 ± 4.1 µM
- EC50 (GlyT2 W563L mutant; glycine transport, GlyT2 W563L (TM8)): 4.9 ± 0.8 µM

Compound: CCCCC/C=C\C/C=C\C/C=C\C/C=C\CCCC(=O)NCC(=O)O [N-arachidonyl Glycine, reference compound]
- IC50 (GlyT2 WT): 9.1 µM
- GlyT2 % max. inhibition (GlyT2 WT): 79.6 ± 2.1%
- mechanism of inhibition (GlyT2 WT): not competitive

Compound: CCCCCCCC/C=C\CCCCCCCC(=O)NCC(=O)O [N-oleoyl Glycine, reference compound]
- IC50 (GlyT2 WT): 0.5 µM
- GlyT2 % max. inhibition (GlyT2 WT): 66.8 ± 2.8%
- IC50 (GlyT2 P561S mutant; mean (95% CI)): 0.564 µM
- % Max. inhibition (GlyT2 P561S mutant): 62.1 ± 4.8 (p=0.9242) %
- IC50 (GlyT2 W563L mutant; GlyT2 W563L, mean (95% CI)): 0.755 µM
- % Max. inhibition (GlyT2 W563L mutant; GlyT2 W563L): 46.6 ± 4.0 (p=0.0449) %

Compound: CCCCCCCC/C=C\CCCCCCCC(=O)O[C@H](CC(=O)[O-])C[N+](C)(C)C [oleoyl L-Carnitine, reference compound]
- IC50 (GlyT2 WT): 0.34 µM
- GlyT2 % max. inhibition (GlyT2 WT): 71.5 ± 5.7%
- IC50 (GlyT2 P561S mutant; greater than maximum concentration applied (footnote a)): > 3 µM
- % Max. inhibition (GlyT2 P561S mutant): 31.6 ± 5.2 (p=0.0001) %
- IC50 (GlyT2 W563L mutant; [1]): > 3 µM
- % Max. inhibition (GlyT2 W563L mutant; GlyT2 W563L): 34.7 ± 3.2 (p=0.0001) %

Compound: CCCCCCCC/C=C\CCCCCCCC(=O)N[C@@H](CC(=O)O)C(=O)O [oleoyl l-Aspartate]
- IC50 (GlyT2 WT): 0.865 µM
- GlyT2 % max. inhibition (GlyT2 WT): 76.7 ± 5.3%
- IC50 (GlyT2 P561S mutant; mean (95% CI)): 2.54 µM
- % Max. inhibition (GlyT2 P561S mutant): 58.2 ± 4.7 (p=0.0954) %
- IC50 (GlyT2 W563L mutant; GlyT2 W563L, mean (95% CI)): 1.16 µM
- % Max. inhibition (GlyT2 W563L mutant; GlyT2 W563L): 74.9 ± 7.5 (p=0.9965) %

Compound: CCCCCCCC/C=C\CCCCCCCC(=O)N[C@@H](CCCCN)C(=O)O [oleoyl l-Lysine]
- GlyT2 % max. inhibition (GlyT2 WT): 86.8 ± 2.4%
- mechanism of inhibition (GlyT2 WT): not competitive
- IC50 (GlyT2 P561S mutant; mean (95% CI)): 0.0692 µM
- % Max. inhibition (GlyT2 P561S mutant): 71.5 ± 4.8 (p=0.0758) %
- IC50 (GlyT2 W563L mutant; GlyT2 W563L, mean (95% CI)): 0.175 µM
- % Max. inhibition (GlyT2 W563L mutant; GlyT2 W563L): 73.5 ± 3.3 (p=0.1479) %

Compound: CCCCCCCC/C=C\CCCCCCCC(=O)N[C@@H](Cc1c[nH]c2ccccc12)C(=O)O [oleoyl l-Tryptophan]
- GlyT2 % max. inhibition (GlyT2 WT): 86.2 ± 3.8%
- IC50 (GlyT2 P561S mutant; mean (95% CI)): 0.318 µM
- % Max. inhibition (GlyT2 P561S mutant): 61.4 ± 4.2 (p=0.0001) %
- IC50 (GlyT2 W563L mutant; [1]): > 3 µM
- % Max. inhibition (GlyT2 W563L mutant; GlyT2 W563L): 42.9 ± 2.6 (p=0.0001) %

Compound: CCCCCCCC/C=C\CCCCCCCC(=O)N[C@H](C(=O)O)C(C)C [oleoyl l-Valine]
- IC50 (GlyT2 WT): 1.17 µM
- GlyT2 % max. inhibition (GlyT2 WT): 90.9 ± 5.9%
- IC50 (GlyT2 P561S mutant; mean (95% CI)): 0.753 µM
- % Max. inhibition (GlyT2 P561S mutant): 94.5 ± 4.7 (p=0.9462) %
- % Max. inhibition (% inhibition at the highest concentration of inhibitor used) (GlyT2 W563L mutant; GlyT2 W563L, footnote b): 56.3 ± 9.1^b (p=0.5737) %
- IC50 (GlyT2 W563L mutant; GlyT2 W563L, mean (95% CI)): 7.51 µM

Compound: oleoyl d-Lysine
- IC50 (GlyT2 WT): 0.0483 µM
- GlyT2 % max. inhibition (GlyT2 WT): 91.0 ± 1.9%
- IC50 (GlyT2 P561S mutant; mean (95% CI)): 0.558 µM
- % Max. inhibition (GlyT2 P561S mutant): 76.7 ± 8.1 (p=0.4299) %
- IC50 (GlyT2 W563L mutant; [1]): > 3 µM
- % Max. inhibition (GlyT2 W563L mutant; GlyT2 W563L): 42.1 ± 7.7 (p=0.0017) %
